Assay results published in patent US5763597A, “Orally active adenosine kinase inhibitors” (priority 1996, dated 1998).
Like-named read-outs stand apart in the source and are kept apart here. Each block holds one molecule with its values, some of them ahead of it.

Legend:
rat cardiomyocytes = details: cited from earlier work
[1] = tested on: isolated guinea pig hearts; details: without ADA inhibition; cited from earlier work
[2] = background; hence potentially short half life; cited from earlier work
mice = details: cited from earlier work; for general flaccidity and spontaneous locomotor activity: interpreted to be skeletal muscle relaxation
rat brain slices = details: cited from earlier work
guinea pig brain slices = details: cited from earlier work
dog hearts = details: cited from earlier work
[3] = background; cited from earlier work
isolated rat hearts = details: compound alone, cited from earlier work
[4] = tested on: carrageenan paw swelling in rats; assay: Anti-inflammatory activity, carrageenan paw swelling; format: in vivo; details: rat, swelling after 3 hours; for Carrageenan Paw (% inh) ip: 10 mg/kg ip, 30 min before carrageenan; for Carrageenan Paw (% inh) po: 10 mg/kg po, 1 h before carrageenan
[5] = tested on: hot plate pain response in male SA rats; assay: Analgesic activity, hot plate; format: in vivo; details: rat, po
Description: Ther., 250:3, 915-922 (1989). See also, Life Sciences 51:171-76 (1992). These models measure pain avoidance and tolerance in response to a regulated stimulus, and compare the response of animals before and after they are given test compound.

[6] = tested on: formalin-induced pain in rats; assay: Analgesic activity, formalin paw model; format: in vivo; details: rat, oral, 20 mg/kg; for % Inhibition Phase 1 Composite score: Phase 1 (1.7-5 min post-formalin); for % Inhibition Phase 2 Composite score: Phase 2 (10.3-30 min post-formalin); for % Inhibition Phase 2 Licking/biting: Phase 2, licking/biting incidences
Description: Pharmacol. Exper. Ther., 250:3, 915-922 (1989). See also, Life Sciences 51:171-76 (1992). These models measure pain avoidance and tolerance in response to a regulated stimulus, and compare the response of animals before and after they are given test compound. Formalin Paw Assay In this assay, injection of formalin, an irritant, into the hindpaw of rats typically evokes a biphasic response of pain-related behaviors. […] Phase I behavior is thought to be a direct effect of the irritant on nociceptors at the injection site while phase 2 behavior is thought to include a hyperalgesic component mediated by sensitization of neuronal elements within the spinal cord. Studies from other laboratories have found the first portion of Phase 2 (sometimes referred to as Phase 2a) to be most responsive to pharmacological manipulation. Rats (male, Simonsen) weighing between 100-200 g, are used in the present experiments. For screening purposes drugs are administered orally 90 min prior to initiation of formalin test. […] The rat is then immediately placed in a separate plexiglass box and scoring (described below) of the animal's behavior is begun at 1.7 min after formalin injection. […] This sequence is repeated over a 30 min period. […] Scores are continuously recorded directly onto an Excel spreadsheet.

adenosine kinase = assay: AK inhibition (adenosine kinase activity, [U-14C] adenosine); format: biochemical, partially purified pig heart or recombinant human; details: 0.5 μM adenosine, 1 mM ATP, pH 7.0, 20 min; pig heart or recombinant human enzyme
Experimental: Adenosine kinase activity was measured essentially as described by Yamada et al. Biochim. Biophys. Acta 660, 3643 (1988) with a few minor modifications. Assay mixtures contained 50 mM TRIS-maleate buffer, pH 7.0, 0.1% BSA, 1 mM ATP 1 mM MgCl2, 0.5 μM [U-^14 C] adenosine (400-600 mCi/mmol) and varying duplicate concentrations of inhibitor. […] The amount of ^14 C-AMP was quantified by scintillation counting.

[7] = Oral bioavailability in dogs; format: in vivo, female beagle dogs; details: dog, 10 mg/kg oral versus iv, dose-corrected AUC to infinity, PEG-400
Experimental: Oral bioavailability was determined by comparing the dose corrected areas under the plasma-concentration time curve (AUC) to infinity for the each tested compound, given orally and intravenously in dogs. […] One dog received this solution at an infusion rate of 0.1 mL/min for 20 minutes. The other dog received a 0.2 mL/in infusion for 10 minutes. […] The plasma was separated within 10 minutes of blood collection and was stored frozen. The plasma concentration of compound was then determined for these IV infusions. […] The plasma concentration of compound was determined for this oral administration. The samples were assayed for intact adenosine kinase inhibitor by high performance liquid chromatography (HPLC). An internal standard was added to each test sample and standard sample. Each was then extracted with 10 volumes of 1% v/v dimethylsulfoxide in acetonitrile. […] The dried residue was reconstituted in mobile phase and the contents were analyzed for the adenosine kinase inhibitor (AKI) on HPLC. […] Pharmacokinetic parameters were calculated from the plasma concentration vs. time data, using standard non-compartmental methods. […] (1983).

[8] = tested on: maximal electroshock seizures (hind limb tonic extension) in male SA rats; assay: Anticonvulsant activity, maximal electroshock (MES) model; format: in vivo; details: rat
[9] = po, fasted overnight, ">>" (written >) = no activity at stated dose, read-out: Anticonvulsant ED50 (MES) po
[10] = ip, ">5" = HTE inhibited in fewer than 50% of animals at 5 mg/kg screen, ">>" (written >) = no activity, "<" = maximal activity at stated dose, read-out: Anticonvulsant ED50 (MES) ip

% Oral Availability [7]: 47%
Structure (SMILES): C[C@H]1O[C@@H](n2cc(-c3ccc(F)cc3)c3c(Nc4ccc(F)cc4)ncnc32)[C@H](O)[C@@H]1O [compound 2]

IC50 (adenosine kinase): 10 nM
Structure (SMILES): COc1ccc(-c2cn([C@@H]3O[C@H](C)[C@@H](O)[C@H]3O)c3ncnc(Nc4ccc(F)cc4)c23)cc1 [compound 25]
% Inhibition Phase 1 Composite score [6]: 88.4%
% Inhibition Phase 2 Composite score [6]: 91.9%
% Inhibition Phase 2 Licking/biting [6]: 100%

IC50 (adenosine kinase): 4 nM
Structure (SMILES): CCOc1ccc(Nc2ncnc3c2c(-c2ccccc2)cn3[C@@H]2O[C@H](C)[C@@H](O)[C@H]2O)cc1 [compound 28]
Carrageenan Paw (% inh) ip [4]: 22.2 % inh
Carrageenan Paw (% inh) po [4]: 31.0 % inh
% Inhibition Phase 1 Composite score [6]: 22.5%
% Inhibition Phase 2 Composite score [6]: 46.8%
% Inhibition Phase 2 Licking/biting [6]: 83%

IC50 (adenosine kinase): 5 nM
Structure (SMILES): C[C@H]1O[C@@H](n2cc(-c3ccccc3)c3c(Nc4ccc(S(N)(=O)=O)cc4)ncnc32)[C@H](O)[C@@H]1O [compound 34]
ED50 [8, 9]: > 10 mg/kg
Carrageenan Paw (% inh) ip [4]: 1.7 % inh
Carrageenan Paw (% inh) po [4]: 0 % inh

IC50 (adenosine kinase): 3 nM
Structure (SMILES): C[C@H]1O[C@@H](n2cc(-c3ccccc3)c3c(Nc4ccc(N)cc4)ncnc32)[C@H](O)[C@@H]1O [compound 43]
ED50 [8, 10]: 5 mg/kg

IC50 (adenosine kinase): 10 nM
Structure (SMILES): [N-]=[N+]=NC[C@H]1O[C@@H](n2nc(-c3cccs3)c3c(Nc4ccccc4)ncnc32)[C@H](O)[C@@H]1O [compound 97]
Anticonvulsant ED50 (MES) ip ([8]; ip, ">5" = HTE inhibited in fewer than 50% of animals at 5 mg/kg screen, ">>" (written >) = no activity, "<" = maximal activity at stated dose): > 5 mg/kg

IC50 (adenosine kinase): 6 nM
Structure (SMILES): C[C@H]1O[C@@H](n2cc(-c3ccc(CO)cc3)c3c(Nc4ccccc4)ncnc32)[C@H](O)[C@@H]1O [compound 130]
ED50 [8, 10]: > 5 mg/kg
Carrageenan Paw (% inh) ip [4]: 0.0 % inh
Carrageenan Paw (% inh) po [4]: 3.9 % inh

Second part, the molecule before the results:

Structure (SMILES): OC[C@H]1O[C@@H](n2cnc3c2N=CNC[C@H]3O)C[C@@H]1O [2'-deoxycoformycin]
effect on adenosine release from the cells (rat cardiomyocytes; adenosine deaminase inhibition): no effect on adenosine release from the cells

Structure (SMILES): NC[C@H]1O[C@@H](n2cnc3c(N)ncnc32)[C@H](O)[C@@H]1O [5'-amino-5'-deoxyadenosine]
adenosine release in the absence of ADA inhibition [1]: These effects were not apparent in the absence of ADA inhibition
increase in adenosine release (rat cardiomyocytes; together with ADA inhibition): 6 fold
susceptibility to deamination [2]: susceptibility of 5'-amino-5'-deoxyadenosine to deamination

Structure (SMILES): C[C@H]1O[C@@H](n2cc(I)c3c(N)ncnc32)[C@H](O)[C@@H]1O [5'-deoxy-5-iodotubercidin]
body temperature (hypothermia) (mice): hypothermia
general flaccidity and spontaneous locomotor activity (mice): pronounced general flaccidity and much-reduced spontaneous locomotor activity
adenosine uptake, rat brain slices (rat brain slices): adenosine uptake was reportedly inhibited
adenosine uptake, guinea pig brain slices (guinea pig brain slices): adenosine uptake was reportedly inhibited

Structure (SMILES): Nc1ncnc2c1c(I)cn2[C@@H]1O[C@H](CO)[C@@H](O)[C@H]1O [5-iodotubercidin]
effects in dog heart ischemia and reperfusion (dog hearts): inconsistent effects
body temperature (hypothermia) (mice): hypothermia
general flaccidity and spontaneous locomotor activity (mice): pronounced general flaccidity and much-reduced spontaneous locomotor activity
adenosine uptake, rat brain slices (rat brain slices): adenosine uptake was reportedly inhibited
cytotoxicity [3]: cytotoxicity of 5-iodotubercidin
perfusate adenosine concentration, hypoxic, anoxic or ischemic (isolated rat hearts; hypoxic, anoxic or ischemic conditions): no increase in perfusate adenosine concentration
perfusate adenosine concentration, normoxic (isolated rat hearts; normoxic conditions): no increase in perfusate adenosine concentration
adenosine uptake, guinea pig brain slices (guinea pig brain slices): adenosine uptake was reportedly inhibited

Structure (SMILES): C[C@H]1O[C@@H](n2cc(-c3ccccc3)c3c(Nc4ccc(F)cc4)ncnc32)[C@H](O)[C@@H]1O [compound 1]
Carrageenan Paw (% inh) ip [4]: 3.5 % inh
Carrageenan Paw (% inh) po [4]: 0.2 % inh
ED50 [5]: 16.6 mg/kg
% Inhibition Phase 1 Composite score [6]: 7.4%
% Inhibition Phase 2 Composite score [6]: 33.3%
% Inhibition Phase 2 Licking/biting [6]: 59%
IC50 (adenosine kinase): 11 nM

Structure (SMILES): CC(=O)Nc1ccc(Nc2ncnc3c2c(-c2ccccc2)cn3[C@@H]2O[C@H](C)[C@@H](O)[C@H]2O)cc1 [compound 32]
ED50 [8, 9]: > 10 mg/kg
% Inhibition Phase 1 Composite score [6]: 0%
% Inhibition Phase 2 Composite score [6]: 30.9%
% Inhibition Phase 2 Licking/biting [6]: 56%
IC50 (adenosine kinase): 0.5 nM

Structure (SMILES): CCOC(=O)Cc1ccc(Nc2ncnc3c2c(-c2ccccc2)cn3[C@@H]2O[C@H](C)[C@@H](O)[C@H]2O)cc1 [compound 127]
ED50 [8, 10]: 5 mg/kg
Carrageenan Paw (% inh) ip [4]: 5.4 % inh
Carrageenan Paw (% inh) po [4]: 2.9 % inh
IC50 (adenosine kinase): 2 nM
